In PubChem BioAssay AID248 (DTP/NCI, 2004):
Several values for one entry are separate records, joined by “and”; a condition that tells them apart may be missing. Identical values can stand only once. Toxic doses and inconclusive results are not listed. Cut-off read from the data, not from the text of the source: active = T/C of 150% or more; inactive = T/C below 125%.

System: L1210 leukemia ip in BDF1 mice, survival T/C
Experiment: NCI In Vivo Anticancer Drug Screen. Data for tumor model L1210 Leukemia (intraperitoneal) in B6D2F1 (BDF1) mice
Conditions: endpoint: mean survival time, higher = longer survival
Outline: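 Mice bearing the transplanted tumor received compound or vehicle. Survival of the treated group was divided by that of the vehicle-treated control group to give the ratio.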

[1] = dose: 100.0 mg/kg/injection, schedule: Q04DX003 (ip), vehicle: Klucel (hydroxypropylcellulose) (HPC)
[2] = dose: 200.0 mg/kg/injection, schedule: Q04DX003 (ip), vehicle: Klucel (hydroxypropylcellulose) (HPC)
[3] = dose: 400.0 mg/kg/injection, schedule: Q04DX003 (ip), vehicle: Klucel (hydroxypropylcellulose) (HPC)
[4] = dose: 25.0 mg/kg/injection, schedule: Q01DX009 (ip), vehicle: saline with Tween-80
[5] = dose: 50.0 mg/kg/injection, schedule: Q01DX009 (ip), vehicle: saline with Tween-80
[6] = dose: 100.0 mg/kg/injection, schedule: Q01DX009 (ip), vehicle: saline with Tween-80
[7] = dose: 100.0 mg/kg/injection, schedule: Q04DX003 (ip), vehicle: saline with Tween-80
[8] = dose: 200.0 mg/kg/injection, schedule: Q04DX003 (ip), vehicle: saline with Tween-80
[9] = dose: 400.0 mg/kg/injection, schedule: Q04DX002 (ip), vehicle: saline with Tween-80
[10] = dose: 400.0 mg/kg/injection, schedule: Q04DX003 (ip), vehicle: saline with Tween-80
[11] = dose: 100.0 mg/kg/injection, schedule: Q01DX009 (ip), vehicle: Klucel (hydroxypropylcellulose) (HPC)
[12] = dose: 200.0 mg/kg/injection, schedule: Q01DX009 (ip), vehicle: Klucel (hydroxypropylcellulose) (HPC)
[13] = dose: 400.0 mg/kg/injection, schedule: Q01DX009 (ip), vehicle: Klucel (hydroxypropylcellulose) (HPC)
[14] = dose: 100.0 mg/kg/injection, schedule: Q01DX001 (ip), vehicle: carboxymethylcellulose (CMC)
[15] = dose: 200.0 mg/kg/injection, schedule: Q01DX001 (ip), vehicle: carboxymethylcellulose (CMC)
[16] = dose: 400.0 mg/kg/injection, schedule: Q01DX001 (ip), vehicle: carboxymethylcellulose (CMC)

Measured: T/C

Cc1ccc(S(=O)(=O)NCC(=O)NCC(=O)Oc2c(Cl)c(Cl)c(Cl)c(Cl)c2Cl)cc1
inactive: dose: 100.0 mg/kg/injection, schedule: Q01DX001 (ip), vehicle: water 95 % of control | dose: 200.0 mg/kg/injection, schedule: Q01DX001 (ip), vehicle: water 96 % of control | dose: 400.0 mg/kg/injection, schedule: Q01DX001 (ip), vehicle: water 95 % of control

CNC(=O)NCC1OC(OC)C(O)C(O)C1O (centres undefined)
inactive: [1] 100 % of control | [2] 107 % of control | [3] 100 % of control

CCOC(=O)c1c(NC(=O)C(F)(F)F)[nH]c(SSc2[nH]c(NC(=O)C(F)(F)F)c(C(=O)OCC)c2C(=O)OCC)c1C(=O)OCC
inactive: [4] 97 % of control | [5] 102 % of control | [6] 97 % of control | [7] 105 % of control | [8] 86 % of control

O=C(Nc1ccccc1)OC(C[N+](=O)[O-])C(Cl)(Cl)Cl (centres undefined)
inactive: dose: 75.0 mg/kg/injection, schedule: Q01DX001 (ip), vehicle: carboxymethylcellulose (CMC) 98 % of control

OCCNCc1ccc(O)cc1
inactive: dose: 100.0 mg/kg/injection, schedule: Q01DX009 (ip), vehicle: water 100 % of control | dose: 100.0 mg/kg/injection, schedule: Q04DX003 (ip), vehicle: water 103 % of control | dose: 200.0 mg/kg/injection, schedule: Q01DX009 (ip), vehicle: water 105 % of control | dose: 200.0 mg/kg/injection, schedule: Q04DX003 (ip), vehicle: water 103 % of control | dose: 400.0 mg/kg/injection, schedule: Q01DX009 (ip), vehicle: water 102 % of control | dose: 400.0 mg/kg/injection, schedule: Q04DX003 (ip), vehicle: water 103 % of control

O=C(Nc1ccc(/C=C/c2ccc(NC(=O)Nc3cccc(C4=NCCN4)c3)cc2)cc1)Nc1cccc(C2=NCCN2)c1
inactive: dose: 3.75 mg/kg/injection, schedule: Q01DX Z (ip), vehicle: carboxymethylcellulose (CMC) 93 % of control | dose: 7.5 mg/kg/injection, schedule: Q01DX Z (ip), vehicle: carboxymethylcellulose (CMC) 98 % of control | dose: 15.0 mg/kg/injection, schedule: Q01DX Z (ip), vehicle: carboxymethylcellulose (CMC) 96 % of control | dose: 50.0 mg/kg/injection, schedule: Q01DX Z (ip), vehicle: carboxymethylcellulose (CMC) 103 % of control | dose: 100.0 mg/kg/injection, schedule: Q01DX Z (ip), vehicle: carboxymethylcellulose (CMC) 102 % of control | dose: 200.0 mg/kg/injection, schedule: Q01DX Z (ip), vehicle: carboxymethylcellulose (CMC) 97 % of control

CC(=O)C(C(=O)NCc1ccccc1)C(c1cccc([N+](=O)[O-])c1)C(C(C)=O)C(=O)NCc1ccccc1 (centres undefined)
inactive: dose: 25.6 mg/kg/injection, schedule: Q04DX002 (ip), vehicle: saline with Tween-80 95 % of control | dose: 64.0 mg/kg/injection, schedule: Q04DX002 (ip), vehicle: saline with Tween-80 95 % of control | dose: 160.0 mg/kg/injection, schedule: Q04DX002 (ip), vehicle: saline with Tween-80 95 % of control | [8] 87 % of control | [9] 95 % of control | [10] 87 % of control

COc1ccc(NC(=O)c2ccccc2Cl)cc1
inactive: [11] 97 % of control | [1] 105 % of control | [12] 95 % of control | [2] 97 % of control | [13] 95 % of control | [3] 96 % of control

COC(=O)c1ccc(OCc2ccccc2)cc1
inactive: [1] 103 % of control | [2] 100 % of control | [3] 92 % of control

Nc1cc2c(cc1Br)-c1cc(Br)c(N)cc1C2=O
inactive: [14] 98 % of control | [15] 98 % of control | [16] 102 % of control

CC(C)(C)C1CCC(C(N)=O)CC1 (centres undefined)
inactive: dose: 100.0 mg/kg/injection, schedule: Q04DX002 (ip), vehicle: Klucel (hydroxypropylcellulose) (HPC) 103 % of control | dose: 200.0 mg/kg/injection, schedule: Q04DX002 (ip), vehicle: Klucel (hydroxypropylcellulose) (HPC) 107 % of control | dose: 400.0 mg/kg/injection, schedule: Q04DX002 (ip), vehicle: Klucel (hydroxypropylcellulose) (HPC) 103 % of control

COc1ccc(C(=O)NC(=S)Nc2ccc(O)cc2)cc1
inactive: [6] 97 % of control and 104 % of control | dose: 100.0 mg/kg/injection, schedule: Q04DX002 (ip), vehicle: saline with Tween-80 98 % of control | [7] 99 % of control | dose: 200.0 mg/kg/injection, schedule: Q01DX009 (ip), vehicle: saline with Tween-80 108 % of control and 109 % of control | dose: 200.0 mg/kg/injection, schedule: Q04DX002 (ip), vehicle: saline with Tween-80 104 % of control | [8] 94 % of control | dose: 400.0 mg/kg/injection, schedule: Q01DX009 (ip), vehicle: saline with Tween-80 98 % of control and 101 % of control | [9] 95 % of control | [10] 96 % of control

CC1=C(C(=O)O)CC(S(=O)(=O)O)C1(C)C (centres undefined)
inactive: dose: 75.0 mg/kg/injection, schedule: Q01DX001 (ip), vehicle: acetone 96 % of control | dose: 150.0 mg/kg/injection, schedule: Q01DX001 (ip), vehicle: acetone 96 % of control | dose: 300.0 mg/kg/injection, schedule: Q01DX001 (ip), vehicle: acetone 92 % of control

CCCNC(C)(C)C(SSS)c1cccs1 (centres undefined)
inactive: dose: 100.0 mg/kg/injection, schedule: Q04DX003 (ip), vehicle: alcohol 102 % of control | dose: 200.0 mg/kg/injection, schedule: Q04DX003 (ip), vehicle: alcohol 101 % of control

CCNP(=O)(OCC)OCC
inactive: dose: 50.0 mg/kg/injection, schedule: Q01DX001 (ip), vehicle: carboxymethylcellulose (CMC) 94 % of control | [14] 92 % of control | [15] 94 % of control | [16] 118 % of control

Cn1ncc2c(NCc3ccccc3Cl)ncnc21
inactive: [4] 102 % of control | [5] 108 % of control | [6] 124 % of control | dose: 200.0 mg/kg/injection, schedule: Q01DX009 (ip), vehicle: other 93 % of control

CC1(C)N=C(N)N=C(N)N1c1cccc(OCCCOc2ccc(N)cc2)c1
inactive: dose: 5.0 mg/kg/injection, schedule: Q01DX001 (ip), vehicle: saline 97 % of control | dose: 10.0 mg/kg/injection, schedule: Q01DX001 (ip), vehicle: saline 100 % of control | dose: 20.0 mg/kg/injection, schedule: Q01DX001 (ip), vehicle: saline 101 % of control | dose: 40.0 mg/kg/injection, schedule: Q01DX001 (ip), vehicle: saline 100 % of control

O=C(O)C(Cc1ccc(O)cc1)c1ccccc1 (centres undefined)
inactive: dose: 100.0 mg/kg/injection, schedule: Q04DX003 (ip), vehicle: saline 98 % of control | dose: 200.0 mg/kg/injection, schedule: Q04DX003 (ip), vehicle: saline 94 % of control | dose: 400.0 mg/kg/injection, schedule: Q04DX003 (ip), vehicle: saline 96 % of control

CCCCOC(=O)CCCC(=O)OCCCC
inactive: [11] 98 % of control | [1] 100 % of control | [12] 97 % of control | [2] 101 % of control | [13] 95 % of control | [3] 101 % of control

CC(=O)Nc1cc2c(cc1Cl)-c1ccccc1C2Br (centres undefined)
inactive: [1] 96 % of control | [2] 94 % of control | [3] 96 % of control

O/N=C/C=N/O.O/N=C/C=N/O.[Pd]
inactive: dose: 1.56 mg/kg/injection, schedule: Q01DX009 (ip), vehicle: saline with Tween-80 110 % of control | dose: 3.13 mg/kg/injection, schedule: Q01DX009 (ip), vehicle: saline with Tween-80 97 % of control | dose: 6.25 mg/kg/injection, schedule: Q01DX009 (ip), vehicle: saline with Tween-80 112 % of control

O=P1(Cc2ccccc2)C(c2ccccc2)=C(O)CC1c1ccccc1 (centres undefined)
inactive: [1] 101 % of control | [2] 99 % of control | [3] 89 % of control
